Experimental data reported in patent publication US20240316146A1, “METHODS OF REDUCING NEUROPATHY AND NEUROPATHIC SYMPTOMS AND TREATING CANCER” (Bexion Pharmaceuticals Inc., priority 2021, published 2024).
Where “and” joins values, the source holds several entries; their conditions need not be identical. Equal values may be shown once.

Tests used:
[1] = system: mouse oxaliplatin model of chemotherapy-induced neuropathy; assay: Static mechanical (tactile) allodynia, von Frey filaments, Study 1; type: in vivo
Experimental: (§1) 60 adult male C57/BL6 mice (Charles River), 6-7 weeks of age, were housed in groups of 5 in Perspex cages, in a controlled environment of constant temperature and humidity (temperature: 21±1° C., light: dark cycle of 12:12 hours), with food and water available ad libitum. Animals were allowed to recover from transportation for at least one week before commencing experiments.
Static mechanical tactile allodynia: Static mechanical (tactile) allodynia was assessed by measurement of withdrawal threshold using calibrated (force; g) von-Frey monofilaments (Touch-Test Sensory Evaluator; Scientific Marketing Associates) applied to the plantar surface of the left hind-paw. The animals were placed in individual Perspex boxes on a raised metal mesh for 30-40 min before the test to habituate. A series of graduated von Frey hairs (0.07, 0.16, 0.4, 0.6 and 1 g) were applied in sequence with a protocol of 1 sec on 1 sec off repeated 10 times. Each hair was applied perpendicularly to the center of the ventral surface of the paw until it bent slightly. The force applied to the hind-paw of the animal to induce 5 responses out of 10 trials was recorded as paw withdrawal threshold (PWT) 50%.
(§2) Warm vials of BQX-350 were brought to room temperature and reconstituted with 4 mL water for injection via syringe. The vials were gently agitated and/or vortexed for 15-20 sec and allowed to sit at room temp for 5 mins. The rehydrated solution contained 2.2 mg/mL SapC (8.8 mg SapC per vial). About […] of the formulation was injected to achieve a target dose of 20 mg/kg in each mouse. Pregabalin was reconstituted in water and injected to achieve a target dose of 30 mg/kg in each mouse.
(§3) A two-way repeated measures ANOVA with ‘treatment’ as a between subjects effect, and ‘day’ as a within subjects effect was used (using GraphPad Prism version 9.0 for Windows, GraphPad Software, San Diego California USA), followed by Dunnett's multi comparisons test. Data is presented as mean±SEM.

[2] = system: mouse oxaliplatin model of chemotherapy-induced neuropathy; assay: Thermal hypersensitivity, cold plate test 15° C., Study 1; type: in vivo
Experimental: as §1
(§4) Thermal hypersensitivity: Thermal hypersensitivity was assessed using a dynamic cold plate (Bioseb, France) set at a fixed temperature of 15° C. This method allows analysis of more integrated behaviors rather than reflex behaviors, e.g., the tail immersion test. In animal studies, thermal sensitivity is mostly evaluated based on nociceptive reaction latencies in response to a given thermal aversive stimulus. In this classical test, the temperature of the plate is fixed and remains constant: the latency to the first paw licking, jumps or withdrawal is taken as an index of nociceptive threshold. […] The results of the study are shown in Table 5 (raw data) below, Table 6 (summary) below, FIG. 4, and FIG. 5.
as §2, §3

[3] = system: mouse oxaliplatin model of chemotherapy-induced neuropathy; assay: Thermal hypersensitivity, cold plate test, Study 2; conditions: Group B Oxaliplatin/Vehicle; for Latency to withdrawal behaviour in the cold plate test (15° C.): N 12
Experimental: as §4, §1
Thermal hypersensitivity: The same apparatus and protocol were used as for Study 1. The results of Study 2 are shown in Table 11 (raw data), Table 12 (summary), FIG. 8, and FIG. 9.

[4] = Body weights, Study 2; type: in vivo, mouse; conditions: Group B Oxaliplatin/Vehicle, individual mice
From the text: Body Weights: The mice were weighed daily starting 1 day prior to treatment through day 9.

[5] = system: PC-12 cells; assay: Viable cell counts, PC-12 cells; type: cell-based, rat; conditions: for cell viability (in words): 2 μM oxaliplatin alone
Experimental: The neurostimulatory, neuroprotective, and neurotrophic qualities of the SapC-phospholipid formulation (BXQ-350) were tested in vitro in two cell lines, i.e., PC-12 cells (derived from a pheochromocytoma of a rat adrenal medulla) and NS20Y cells (cholinergic cell line derived from a mouse neuroblastoma).
PC-12 cells (ATCC, catalogue number CRL-1721) and NS20Y cells (Millipore Sigma, catalogue number 08062517) were seeded overnight in 24-well plates containing 1×10^4 cells per well in 1 mL of DMEM (Gibco, catalog number 11965-092) supplemented with 10% FBS and PenStrep. Each agent tested was brought to solution, at its appropriate concentrations, in a dosing media consisting of high glucose, no glutamine, no calcium DMEM (Gibco, catalog number 21068-028) supplemented with 4 mM glutamine, 1 mM calcium gluconate and PenStrep. […] The seeding medium was completely removed from the cells before the dosing medium containing the testing agents was added.
PC-12 cells (ATCC, catalogue number CRL-1721) and NS20Y cells (Millipore Sigma, catalogue number 08062517) were seeded overnight in 24-well plates containing 1×10^4 cells per well in 1 mL of DMEM (Gibco, catalog number 11965-092) supplemented with 10% FBS and PenStrep. Each agent tested was brought to solution, at its appropriate concentrations, in a dosing media consisting of high glucose, no glutamine, no calcium DMEM (Gibco, catalog number 21068-028) supplemented with 4 mM glutamine, 1 mM calcium gluconate and PenStrep. BXQ-350 was tested at concentrations between 5 nM and 1 μM concentration of SapC. The seeding medium was completely removed from the cells before the dosing medium containing the testing agents was added.
The viability of the cytotoxic drug+BXQ-350 combination groups was about 50% of the BXQ-350 alone group.

[6] = oxaliplatin 10 mg/kg IP day 0 (+vehicle, BXQ-350 20 mg/kg IP or pregabalin 30 mg/kg IP), group mean
[7] = oxaliplatin treated animals, day 3 to day 9, BXQ-350 20 mg/kg, pregabalin 30 mg/kg 2 hours before assessment
[8] = cold plate 15° C., oxaliplatin 10 mg/kg IP day 0 (+vehicle, BXQ-350 20 mg/kg IP or pregabalin 30 mg/kg IP), group mean

O=C([O-])C(=O)[O-].[NH-][C@@H]1CCCC[C@H]1[NH-].[Pt+4] (relative stereo) [Oxaliplatin, cis-[(1R,2R)-1,2-cyclohexanediamine-N,N′][oxalato(2)-O,O′] platinum]
PWT 50% (g) Baseline [1, 6]: 0.780 g | PWT 50% (g) D3 [1, 6]: 0.423 g | PWT 50% (g) D5 [1, 6]: 0.357 g | PWT 50% (g) D7 [1, 6]: 0.369 g | PWT 50% (g) D9 [1, 6]: 0.373 g | mechanical allodynia (in words) [1, 7]: induced consistent and persistent mechanical allodynic response | Latency (s) Baseline [2, 8]: 54.717 s | Latency (s) D 3 [2, 8]: 25.583 s | Latency (s) D 5 [2, 8]: 28.567 s | Latency (s) D 7 [2, 8]: 32.475 s | Latency (s) D 9 [2, 8]: 22.050 s | Individual latency to displaying withdrawal behaviour in the cold plate test ([2]; oxaliplatin 10 mg/kg IP day 0 (+vehicle, BXQ-350 20 mg/kg IP or pregabalin 30 mg/kg IP), Baseline, individual mice): 45.4 s and 59.0 s and 48.3 s and 65.5 s and 80.0 s and 54.3 s and 46.2 s and 46.7 s and 46.5 s and 58.8 s and 48.6 s and 57.6 s | Individual latency to displaying withdrawal behaviour in the cold plate test ([2]; oxaliplatin 10 mg/kg IP day 0 (+vehicle, BXQ-350 20 mg/kg IP or pregabalin 30 mg/kg IP), Day 3, individual mice): 22.9 s and 19.5 s and 25.9 s and 24.2 s and 30.2 s and 15.0 s and 31.3 s and 34.1 s and 22.0 s and 24.3 s and 35.5 s and 22.1 s | Individual latency to displaying withdrawal behaviour in the cold plate test ([2]; oxaliplatin 10 mg/kg IP day 0 (+vehicle, BXQ-350 20 mg/kg IP or pregabalin 30 mg/kg IP), Day 5, individual mice): 30.3 s and 27.7 s and 39.8 s and 17.3 s and 31.1 s and 38.3 s and 24.5 s and 18.5 s and 16.0 s and 30.1 s and 33.9 s | Individual latency to displaying withdrawal behaviour in the cold plate test ([2]; oxaliplatin 10 mg/kg IP day 0 (+vehicle, BXQ-350 20 mg/kg IP or pregabalin 30 mg/kg IP), Day 7, individual mice): 16.8 s and 45.9 s and 49.6 s and 37.6 s and 24.3 s and 28.8 s and 18.6 s and 23.0 s and 62.9 s and 31.8 s and 21.5 s and 28.9 s | Individual latency to displaying withdrawal behaviour in the cold plate test ([2]; oxaliplatin 10 mg/kg IP day 0 (+vehicle, BXQ-350 20 mg/kg IP or pregabalin 30 mg/kg IP), Day 9, individual mice): 12.6 s and 13.6 s and 24.8 s and 23.1 s and 31.8 s and 20.9 s and 17.4 s and 25.0 s and 10.6 s and 19.4 s and 25.8 s | thermal (cold) sensitivity, cold plate test (in words) [2, 7]: increased thermal (cold) sensitivity | Individual latency to displaying withdrawal behaviour in the cold plate test ([3]; oxaliplatin 10 mg/kg i.p. day 0, D 3, individual mice): 18.8 s and 69.3 s and 84.0 s and 28.0 s and 19.9 s and 34.2 s and 36.8 s and 23.9 s and 77.7 s and 54.5 s | Latency to withdrawal behaviour in the cold plate test (15° C.) ([3]; oxaliplatin 10 mg/kg i.p. day 0, D3, mean (SEM)): 42.933 + s | Individual latency to displaying withdrawal behaviour in the cold plate test ([3]; oxaliplatin 10 mg/kg i.p. day 0, D 5, individual mice): 29.8 s and 12.7 s and 28.7 s and 18.6 s and 13.1 s and 25.5 s and 33.8 s and 17.4 s and 47.1 s and 16.4 s and 11.8 s and 43.8 s | Latency to withdrawal behaviour in the cold plate test (15° C.) ([3]; oxaliplatin 10 mg/kg i.p. day 0, D5, mean (SEM)): 24.888 ? s | Individual latency to displaying withdrawal behaviour in the cold plate test ([3]; oxaliplatin 10 mg/kg i.p. day 0, D 7, individual mice): 13.7 s and 22.3 s and 7.4 s and 28.4 s and 4.8 s and 23.9 s and 26.1 s and 29.6 s and 23.2 s and 26.3 s and 12.7 s and 44.2 s | Latency to withdrawal behaviour in the cold plate test (15° C.) ([3]; oxaliplatin 10 mg/kg i.p. day 0, D7, mean (SEM)): 21.883 + s | Individual latency to displaying withdrawal behaviour in the cold plate test ([3]; oxaliplatin 10 mg/kg i.p. day 0, D 9, individual mice): 25.2 s and 23.9 s and 39.0 s and 17.2 s and 18.4 s and 23.0 s and 35.0 s and 23.8 s and 12.7 s and 30.6 s and 6.4 s and 33.2 s | Latency to withdrawal behaviour in the cold plate test (15° C.) ([3]; oxaliplatin 10 mg/kg i.p. day 0, D9, mean (SEM)): 24.033 + s | Individual latency to displaying withdrawal behaviour in the cold plate test ([3]; oxaliplatin 10 mg/kg i.p. day 0, D −1, individual mice): 26.1 s and 32.9 s and 45.8 s and 42.4 s and 24.4 s and 53.7 s and 64.3 s and 91.7 s and 31.2 s and 45.0 s and 37.0 s and 33.4 s | Latency to withdrawal behaviour in the cold plate test (15° C.) ([3]; oxaliplatin 10 mg/kg i.p. day 0, D −1, mean (SEM)): 43.992 + s | Individual latency to displaying withdrawal behaviour in the cold plate test ([3]; oxaliplatin 10 mg/kg i.p. day 0, D −2, individual mice): 36.8 s and 63.0 s and 47.4 s and 35.8 s and 31.9 s and 42.2 s and 61.4 s and 63.3 s and 55.6 s and 41.5 s and 29.0 s and 36.7 s | Latency to withdrawal behaviour in the cold plate test (15° C.) ([3]; oxaliplatin 10 mg/kg i.p. day 0, D −2, mean (SEM)): 45.383 + s | Individual latency to displaying withdrawal behaviour in the cold plate test ([3]; oxaliplatin 10 mg/kg i.p. day 0, D −3, individual mice): 29.9 s and 35.1 s and 40.1 s and 49.9 s and 24.7 s and 30.0 s and 72.0 s and 50.6 s and 67.4 s and 55.6 s | Latency to withdrawal behaviour in the cold plate test (15° C.) ([3]; oxaliplatin 10 mg/kg i.p. day 0, D −3, mean (SEM)): 44.183 + s | Individual body weights ([4]; D 0): 26.0 g (2×) and 22.4 g and 23.6 g (2×) and 23.1 g and 24.5 g (2×) and 23.2 g and 24.6 g and 21.9 g and 26.1 g | Individual body weights ([4]; D 1): 24.9 g (2×) and 21.1 g and 23.5 g (2×) and 22.5 g and 23.9 g and 23.7 g and 22.9 g and 23.0 g and 20.8 g and 25.4. g | Individual body weights ([4]; D 2): 24.8 g and 21.3 g and 23.2 g (2×) and 22.3 g and 24.6 g and 23.8 g (2×) and 23.0 g and 23.6 g and 21.0 g and 25.0 g | Individual body weights ([4]; D 3): 24.1 g and 22.4 g (2×) and 22.7 g and 22.2 g (2×) and 23.7 g and 23.0 g (2×) and 22.1 g and 20.6 g and 24.4 g | Individual body weights ([4]; D 4): 25.0 g (2×) and 23.5 g (3×) and 23.1 g (2×) and 22.6 g and 23.7 g and 22.7 g and 21.3 g and 24.8 g | Individual body weights ([4]; D 5): 25.2 g and 23.8 g and 22.8 g (2×) | Individual body weights ([4]; D −1): 25.3 g and 21.8 g and 23.6 g and 22.9 g (3×) and 25.5 g and 23.8 g and 24.1 g and 24.3 g and 21.6 g and 26.1 g | Individual body weights ([4]; D −2): 25.4 g (2×) and 21.9 g and 23.8 g (2×) and 23.3 g and 23.9 g and 23.0 g and 23.5 g and 24.1 g and 21.8 g and 25.2 g | Individual body weights ([4]; D −3): 26.0 g (2×) and 22.0 g (2×) and 24.0 g (4×) and 23.0 g (2×) and 25.0 g (2×) | cell viability (in words) [5]: negligible cell viability | cell viability ([5]; 2 μM oxaliplatin alone (FIG. 12)): less than 1% | cell viability (in words) ([5]; listed as oxaliplatin): severely reduces cell viability
